20 compounds from ChEMBL document CHEMBL5137018, “Pyranochromones with Anti-Inflammatory Activities in Arthritis from Calophyllum membranaceum” (J Nat Prod, 2022) can be followed below.

The structures appear in SMILES notation. pIC50: −log10 of the molar value. Active and inactive are the calls of the source. The rule behind the calls is not given here.

By CC50 is commonly meant the concentration giving 50% cytotoxicity. One may read the pIC50 as the negative decadic logarithm of the IC50, by convention in mol/L.

Assay [1] relates to RAW264.7. The assay is described as follows: Cytotoxicity against mouse RAW264.7 cells assessed as effect on cell viability measured after 12 hrs by MTT assay. Format: functional.
The test system of assay [2] is Mus musculus. The assay is described as follows: Antiinflammatory activity in carrageenan-induced acute arthritis ICR mouse assessed as reduction in relative neutrophil to lymphocyte ratio at 20 mg/kg, po for 10 days followed by carrageenan stimulation and measured upto 6 hrs by hematology analyzer. Format: functional. To be noted: time 10 day.
The subject of assay [3] is RAW264.7. The assay is described as follows: Antiinflammatory activity in mouse RAW264.7 cells assessed as increase in IKK beta phosphorylation at 0.1 to 5 uM preincubated for 12 hrs followed by LPS stimulation and measured after 24 hrs by western blot assay. Format: functional, cell-based. To be noted: dose 0.1-5 µM, time 36.0 hrs, DDE = dose-dependent effect. A general note: In western blotting, separated proteins are transferred to a membrane and probed.

In assay [4] the test system is RAW264.7. Kind of assay: Antiinflammatory activity in LPS induced mouse RAW264.7 cells assessed as downregulation of IL-4 secretion at 0.1 to 5 uM incubated for 12 hrs followed by LPS stimulation and measured after 24 hrs by ELISA. Format: functional, cell-based. To be noted: dose 0.1-5 µM, time 36.0 hrs, DDE = dose-dependent effect. (ELISA stands for enzyme-linked immunosorbent assay.)

Assay [5] has as its system Mus musculus. Kind of assay: Antiinflammatory activity in carrageenan-induced acute arthritis ICR mouse assessed as downregulation of IL-4 secretion in plasma measured at 10 to 20 mg/kg, po for 10 days followed by carrageenan stimulation and measured after 6 hrs by ELISA. Format: functional, organism-based. To be noted: dose 10-20 mg/kg, time 10.0 day, DDE = dose-dependent effect.

Assay [6] deals with Mus musculus. The assay is described as follows: Antiinflammatory activity in carrageenan-induced acute arthritis ICR mouse assessed as downregulation of IL-5 secretion in plasma measured at 10 to 20 mg/kg, po for 10 days followed by carrageenan stimulation and measured after 6 hrs by ELISA. Format: functional, organism-based. To be noted: dose 10-20 mg/kg, time 10.0 day, DDE = dose-dependent effect.

The test system of assay [7] is Mus musculus. The assay is described as follows: Antiinflammatory activity in carrageenan-induced acute arthritis ICR mouse assessed as reduction in paw swelling at 10 to 20 mg/kg, po for 10 days followed by carrageenan stimulation and measured upto 6 hrs by vernier caliper method. Format: functional, organism-based. To be noted: dose 10-20 mg/kg, time 10.0 day.
Assay [8] deals with Mus musculus. Kind of assay: Antiinflammatory activity in carrageenan-induced acute arthritis ICR mouse assessed as downregulation of IL-2 secretion in plasma measured at 10 to 20 mg/kg, po for 10 days followed by carrageenan stimulation and measured after 6 hrs by ELISA. Format: functional, organism-based. To be noted: dose 10-20 mg/kg, time 10.0 day, DDE = dose-dependent effect.

Assay [9] relates to Mus musculus. The assay is described as follows: Antiinflammatory activity in carrageenan-induced acute arthritis ICR mouse assessed as reduction in relative neutrophil to lymphocyte ratio at 10 mg/kg, po for 10 days followed by carrageenan stimulation and measured upto 6 hrs by hematology analyzer. The assay is classed as functional. To be noted: time 10 day.
For assay [10], the system named is RAW264.7. Kind of assay: Antiinflammatory activity in LPS induced mouse RAW264.7 cells assessed as downregulation of IL-2 secretion at 0.1 to 5 uM incubated for 12 hrs followed by LPS stimulation and measured after 24 hrs by ELISA. Format: functional, cell-based. To be noted: dose 0.1-5 µM, time 36.0 hrs, DDE = dose-dependent effect.
For assay [11], the system named is RAW264.7. The assay is described as follows: Antiinflammatory activity in mouse RAW264.7 cells assessed as increase in IKK alpha phosphorylation at 0.1 to 5 uM preincubated for 12 hrs followed by LPS stimulation and measured after 24 hrs by western blot assay. Format: functional, cell-based. To be noted: dose 0.1-5 µM, time 36.0 hrs, DDE = dose-dependent effect.

Assay [12] deals with RAW264.7. The assay is described as follows: Antiinflammatory activity in mouse RAW264.7 cells assessed as suppression of NF-kappa B expression at 0.1 to 5 uM preincubated for 12 hrs followed by LPS stimulation and measured after 24 hrs by western blot assay. To be noted: dose 0.1-5 µM, time 36.0 hrs, DDE = dose-dependent effect. The assay is classed as functional, cell-based.

The test system of assay [13] is RAW264.7. The assay is described as follows: Antiinflammatory activity in mouse RAW264.7 assessed as inhibition of LPS-induced NO production preincubated for 12 hrs followed by LPS stimulation and measured after 6 hrs by Griess reagent based assay. Format: functional, cell-based.
Assay [14] has as its target T1, Toll-like receptor 4 (Mus musculus) (UniProt Q9QUK6).
T1 sequence (whole entry): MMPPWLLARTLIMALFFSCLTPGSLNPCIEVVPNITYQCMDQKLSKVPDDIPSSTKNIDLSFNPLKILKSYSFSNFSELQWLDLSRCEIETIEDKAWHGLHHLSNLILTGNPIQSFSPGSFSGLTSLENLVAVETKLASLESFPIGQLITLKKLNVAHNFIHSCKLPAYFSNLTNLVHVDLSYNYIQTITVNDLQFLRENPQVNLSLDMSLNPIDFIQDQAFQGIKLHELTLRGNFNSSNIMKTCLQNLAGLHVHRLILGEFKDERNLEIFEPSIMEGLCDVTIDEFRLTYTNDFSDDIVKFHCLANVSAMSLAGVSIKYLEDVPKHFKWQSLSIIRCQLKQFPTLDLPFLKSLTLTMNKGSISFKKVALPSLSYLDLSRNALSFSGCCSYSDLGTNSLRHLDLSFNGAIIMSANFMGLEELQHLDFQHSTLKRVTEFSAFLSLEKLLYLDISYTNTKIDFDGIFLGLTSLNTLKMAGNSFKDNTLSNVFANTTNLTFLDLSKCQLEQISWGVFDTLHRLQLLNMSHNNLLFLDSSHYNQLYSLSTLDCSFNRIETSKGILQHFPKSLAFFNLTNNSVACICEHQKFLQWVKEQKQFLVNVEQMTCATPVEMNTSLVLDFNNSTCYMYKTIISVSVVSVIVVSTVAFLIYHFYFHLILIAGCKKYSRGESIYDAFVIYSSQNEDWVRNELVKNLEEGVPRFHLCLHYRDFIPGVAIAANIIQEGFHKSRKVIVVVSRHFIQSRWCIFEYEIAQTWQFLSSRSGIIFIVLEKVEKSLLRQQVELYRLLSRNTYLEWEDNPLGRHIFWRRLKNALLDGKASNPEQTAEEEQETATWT
The assay is described as follows: Binding affinity to mouse TLR4 in RAW264.7 cells assessed as thermal stabilization at 1 uM and measured after 12 hrs by CETSA analysis. The assay is classed as cell-based.

Assay [15] concerns RAW264.7. The assay is described as follows: Antiinflammatory activity in LPS induced mouse RAW264.7 cells assessed as downregulation of IL-5 secretion at 0.1 to 5 uM incubated for 12 hrs followed by LPS stimulation and measured after 24 hrs by ELISA. Format: functional, cell-based. To be noted: dose 0.1-5 µM, time 36.0 hrs, DDE = dose-dependent effect.

For `CCCCC[C@H](CC(=O)OC)c1c(O)c2c(c3c1OC(C)(C)C=C3)O[C@H](C)[C@H](C)C2=O`, in the assay with RAW264.7 [1], the CC50 amounted to 660 µM. Moreover, the results for the Ratio in the assay on Mus musculus [2] and in the assay with Mus musculus [9] were 0.74 and 0.89, respectively. The Activity entry with RAW264.7 [3], in the assay with RAW264.7 [4], in the assay with Mus musculus [5], with Mus musculus [6], in the assay on Mus musculus [8] and with RAW264.7 [10] was “Dde” in each case. In addition, the Activity result with RAW264.7 [11], in the assay on RAW264.7 [12] and in the assay on RAW264.7 [15] was “Dde” in each case. In addition, the outcome (in the assay on Mus musculus [7]; in assay [14]) was Active. For the same compound, the pIC50 in the assay on RAW264.7 [13] was 6.04.
Regarding `CC/C=C\C[C@H](CC(=O)O)c1c2c(c(O)c3c1O[C@@H](C)[C@H](C)C3=O)C=CC(C)(C)O2`, the CC50 in the assay with RAW264.7 [1] is 550 µM. Also, in the assay on RAW264.7 [13], the negative logarithm of the IC50 (pIC50) is 4.73.
Regarding `C[C@H]1Oc2c(c(O)c3c(c2[C@@H](CC(=O)O)c2ccccc2)OC(C)(C)C=C3)C(=O)[C@@H]1C`, the CC50 in the assay on RAW264.7 [1] was determined as 524 µM. In addition, the pIC50 with RAW264.7 [13] is 4.90.
Regarding `COC(=O)C[C@@H](c1ccccc1)c1c(O)c2c(c3c1OC(C)(C)C=C3)O[C@H](C)[C@H](C)C2=O`, the CC50 in the assay with RAW264.7 [1] is 601 µM. For the same compound, the negative logarithm of the IC50 (pIC50) in the assay with RAW264.7 [13] was 4.95.
`CCCCCC(CC(=O)OC)c1c2c(c(O)c3c1O[C@H](C)[C@@H](C)C3=O)C=CC(C)(C)O2` (stereo partly drawn): the CC50 in the assay with RAW264.7 [1] amounted to 687 µM. Moreover, the negative-log IC50 (pIC50) with RAW264.7 [13] was 5.39.
On to `C[C@H](O)[C@H](C)C(=O)c1c(O)c2c(c3c1OC(=O)C[C@H]3c1ccccc1)OC(C)(C)C=C2`, for which the CC50 in the assay on RAW264.7 [1] worked out at 517 µM. In the assay on RAW264.7 [13], the pIC50 was 5.03.
Regarding `CCCCCC(CC(=O)O)c1c2c(c(O)c3c1O[C@H](C)[C@@H](C)C3=O)C=CC(C)(C)O2` (stereo partly drawn), the CC50 with RAW264.7 [1] is 668 µM. Further, the pIC50 with RAW264.7 [13] was 5.16.
As to `C[C@@H]1Oc2c3c(c([C@@H](CC(=O)O)c4ccccc4)c(O)c2C(=O)[C@@]1(C)O)OC(C)(C)C=C3`, the half-maximal cytotoxic concentration (CC50) with RAW264.7 [1] worked out at 588 µM. In the assay with RAW264.7 [13], the negative logarithm of the IC50 (pIC50) is 5.08.
For `CCCC(CC(=O)O)c1c2c(c(O)c3c1O[C@H](C)[C@@H](C)C3=O)C=CC(C)(C)O2` (stereo partly drawn), the CC50 in the assay on RAW264.7 [1] was found to be 663 µM. The negative logarithm of the IC50 (pIC50) with RAW264.7 [13] was 5.07.
Turning to `CNC(=N)NCCC[C@H](N)C(=O)O` [TILARGININE ACETATE], in the assay on RAW264.7 [1], the CC50 came to 214 µM. In addition, the negative logarithm of the IC50 (pIC50) in the assay on RAW264.7 [13] was 4.69.
Regarding `CCCCC[C@H](CC(=O)O)c1c(O)c2c(c3c1OC(C)(C)C=C3)O[C@H](C)[C@H](C)C2=O`, the cytotoxic concentration (CC50) with RAW264.7 [1] was determined as 636 µM. Moreover, the pIC50 in the assay on RAW264.7 [13] is 5.29.
In the same order, the values of `CCCC[C@H](CC(=O)OC)c1c2c(c(O)c3c1O[C@@H](C)[C@H](C)C3=O)C=CC(C)(C)O2` are 574 µM and 5.37.
For the compound `C[C@@H]1C(=O)c2c(O)c([C@@H](CC(=O)O)c3ccccc3)c3c(c2O[C@@H]1C)C=CC(C)(C)O3` (single isomer, unassigned), in the assay on RAW264.7 [1], the half-maximal cytotoxic concentration (CC50) turned out to be 583 µM. Moreover, the pIC50 in the assay with RAW264.7 [13] is 4.95.
On to `C[C@@H]1Oc2c(c(O)c3c(c2[C@@H](CC(=O)O)c2ccccc2)OC(C)(C)C=C3)C(=O)[C@H]1C`, for which the CC50 in the assay on RAW264.7 [1] came to 569 µM. Also, the negative-log IC50 (pIC50) in the assay on RAW264.7 [13] was 4.86.
Regarding `CCCC1CC(=O)Oc2c(C(=O)[C@H](C)[C@H](C)O)c(O)c3c(c21)OC(C)(C)C=C3` (stereo partly drawn), the CC50 in the assay with RAW264.7 [1] is 552 µM. Also, in the assay on RAW264.7 [13], the negative logarithm of the IC50 (pIC50) was 5.07.
Consider `CCCC(CC(=O)OC)c1c2c(c(O)c3c1O[C@H](C)[C@@H](C)C3=O)C=CC(C)(C)O2` (stereo partly drawn), for which the 50% cytotoxic concentration (CC50) in the assay with RAW264.7 [1] worked out at 649 µM. Besides, the pIC50 in the assay on RAW264.7 [13] was 5.29.
As to `CCCCC(CC(=O)O)c1c2c(c(O)c3c1O[C@H](C)[C@@H](C)C3=O)C=CC(C)(C)O2` (stereo partly drawn), the half-maximal cytotoxic concentration (CC50) with RAW264.7 [1] came out at 654 µM. Moreover, the pIC50 in the assay on RAW264.7 [13] was 5.13.
Consider `CCC[C@@H](CC(=O)OC)c1c(O)c2c(c3c1OC(C)(C)C=C3)O[C@@H](C)[C@H](C)C2=O`, for which the CC50 with RAW264.7 [1] was 698 µM. In addition, in the assay with RAW264.7 [13], the negative logarithm of the IC50 (pIC50) was 5.54.
Turning to `C[C@H](C(=O)c1c(O)c2c(c3c1OC(=O)C[C@H]3c1ccccc1)OC(C)(C)C=C2)[C@@H](C)O`, the half-maximal cytotoxic concentration (CC50) with RAW264.7 [1] is 507 µM. For the same compound, the pIC50 in the assay with RAW264.7 [13] was 5.00.
Regarding `COC(=O)C[C@@H](c1ccccc1)c1c2c(c(O)c3c1O[C@@H](C)[C@H](C)C3=O)C=CC(C)(C)O2`, the cytotoxic concentration (CC50) with RAW264.7 [1] was determined as 594 µM. For the same compound, in the assay on RAW264.7 [13], the pIC50 is 4.90.
